“And” between values parts separate entries of the source, which are not always exact repeats. Equal entries are not always repeated.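 Results reflect a 48-hour exposure of cells in 96-well plates to compound at five concentrations. GI50 = concentration required for 50% inhibition of growth. Definition used: TGI = concentration required for complete inhibition of growth.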
How the values were obtained:
Assay in all cases: DTP human tumour cell line panel, 48 h
[1] = system: A498 renal
[2] = system: HCC-2998 colon
[3] = system: LOX IMVI melanoma
[4] = system: NCI-H460 lung
[5] = system: RXF 393 renal
[6] = system: SK-MEL-28 melanoma
[7] = system: SK-MEL-5 melanoma
[8] = system: SN12C renal
[9] = system: UACC-257 melanoma
[10] = system: UO-31 renal

SMILES: O=C1C(=O)c2ccc(Br)cc2-c2cc(Br)ccc21
- GI50 [1]: > 28.1 µM
- TGI [1]: > 100 µM
- GI50 [2]: 21.3 µM
- TGI [2]: > 100 µM
- GI50 [3]: 0.717 µM
- TGI [3]: 2.13 µM
- GI50 [4]: 4.5 µM
- TGI [4]: > 89.2 µM
- GI50 [5]: 1.85 µM
- TGI [5]: 7.36 µM
- GI50 [6]: 5.52 µM
- TGI [6]: > 55.5 µM
- GI50 [7]: 3.89 µM
- TGI [7]: > 33 µM
- GI50 [8]: 2.14 µM
- TGI [8]: 11.2 µM
- GI50 [9]: 1.62 µM
- TGI [9]: 4.19 µM
- GI50 [10]: 5.61 µM
- TGI [10]: > 100 µM

SMILES: c1ccc2c(c1)O[As](O[As]1Oc3ccccc3O1)O2
- GI50 [1]: 1.6 µM
- TGI [1]: 5.64 µM
- GI50 [2]: 4.96 µM
- TGI [2]: 18.4 µM
- GI50 [3]: 2.3 µM
- TGI [3]: 10.3 µM
- GI50 [4]: 4.43 µM
- TGI [4]: 23.6 µM
- GI50 [5]: 1.64 µM
- TGI [5]: 13 µM
- GI50 [6]: 3.04 µM
- TGI [6]: 15.1 µM
- GI50 [7]: 1.55 µM
- TGI [7]: 3.69 µM
- GI50 [8]: 3.02 µM
- TGI [8]: 14.9 µM
- GI50 [9]: 2.07 µM
- TGI [9]: 9.88 µM
- GI50 [10]: 1.97 µM
- TGI [10]: 11.3 µM

SMILES: Cc1cc(N(CCCl)CCCl)ccc1C=Nc1cccnc1
- GI50 [1]: 0.237 µM
- TGI [1]: 0.833 µM
- GI50 [2]: 16.8 µM
- TGI [2]: 32 µM
- GI50 [3]: 12.7 µM
- TGI [3]: > 100 µM
- GI50 [4]: 0.369 µM
- TGI [4]: > 47.7 µM
- GI50 [5]: 11.6 µM
- TGI [5]: 42.5 µM
- GI50 [6]: > 77.8 µM
- TGI [6]: > 100 µM
- GI50 [7]: 14.6 µM
- TGI [7]: 41.7 µM
- GI50 [8]: 10.6 µM
- TGI [8]: > 100 µM
- GI50 [9]: 3.7 µM
- TGI [9]: 23.2 µM
- GI50 [10]: 12.4 µM
- TGI [10]: > 86.7 µM

SMILES: Cc1c(Cl)cccc1NC(=O)CC1Sc2ccccc2NC1=O (configuration not stated)
- TGI [1]: 38.2 µM and 37.5 µM
- TGI [2]: 52.7 µM and 34.9 µM
- TGI [3]: 83.8 µM and > 100 µM
- TGI [4]: 61.5 µM and 62.5 µM
- TGI [5]: 28 µM and 41.6 µM
- GI50 [6]: 27.4 µM and 55 µM
- TGI [6]: > 100 µM
- TGI [7]: 67.7 µM and > 100 µM
- TGI [8]: 65.6 µM and > 100 µM
- GI50 [9]: 38.7 µM and 5.35 µM
- TGI [9]: > 94.7 µM and 37.8 µM
- TGI [10]: 49.2 µM and 54.8 µM

SMILES: O=S(=O)(c1cccc(C(F)(F)F)c1)N1c2ccccc2-n2cccc2C1c1cccnc1 (configuration not stated)
- TGI [1]: > 64 µM
- TGI [2]: 43.7 µM
- TGI [3]: > 68.7 µM
- TGI [4]: > 51.1 µM
- TGI [5]: > 53.9 µM
- TGI [6]: > 59 µM
- TGI [7]: > 43 µM
- TGI [8]: > 62.3 µM
- TGI [9]: > 54.6 µM
- TGI [10]: 34.3 µM

SMILES: CS(=O)(=O)c1nccc(-c2c(-c3cccc(OCc4ccc(F)cc4)c3)nc3sccn23)n1
- GI50 [1]: 18.2 µM
- TGI [1]: 65.2 µM
- GI50 [2]: 2.28 µM
- TGI [2]: 5.54 µM
- GI50 [3]: 4.7 µM
- TGI [3]: > 100 µM
- GI50 [4]: 56.7 µM
- TGI [4]: > 100 µM
- GI50 [5]: 21.7 µM
- TGI [5]: > 100 µM
- GI50 [6]: 23.8 µM
- TGI [6]: > 100 µM
- GI50 [7]: 2.51 µM
- TGI [7]: > 24.2 µM
- GI50 [8]: > 56.6 µM
- TGI [8]: > 100 µM
- GI50 [9]: 5 µM
- TGI [9]: 14.8 µM
- GI50 [10]: 2.19 µM
- TGI [10]: 5.57 µM

SMILES: CC1(C)CCC(S(=O)(=O)c2ccc3c(c2)/C(=N\O)c2cc(S(=O)(=O)N4CCC(O)(c5cccc(C(F)(F)F)c5)CC4)ccc2-3)CC1
- GI50 [1]: 1.69 µM
- TGI [1]: 3.85 µM
- GI50 [2]: 0.0237 µM
- TGI [2]: 0.0545 µM
- GI50 [3]: 0.0183 µM
- TGI [3]: 0.0381 µM
- GI50 [4]: 0.0261 µM
- TGI [4]: 0.0613 µM
- GI50 [5]: 0.053 µM
- TGI [5]: 0.185 µM
- GI50 [6]: 0.0505 µM
- TGI [6]: 0.446 µM
- GI50 [7]: 0.0454 µM
- TGI [7]: 0.18 µM
- GI50 [8]: 0.0612 µM
- TGI [8]: 2.2 µM
- GI50 [9]: 0.0665 µM
- TGI [9]: 1.11 µM
- GI50 [10]: 1.67 µM
- TGI [10]: 5.49 µM

SMILES: O=C1Nc2ccc(Cl)cc2/C1=C\c1c(-c2ccc(F)cc2)nc2ccccn12
- GI50 [1]: 1.21 µM
- TGI [1]: 4.51 µM
- GI50 [2]: 2.01 µM
- TGI [2]: 5.1 µM
- GI50 [3]: 2.06 µM
- TGI [3]: 4.89 µM
- GI50 [4]: 2.35 µM
- TGI [4]: 5.89 µM
- GI50 [5]: 1.87 µM
- TGI [5]: 4.2 µM
- GI50 [6]: 3.33 µM
- TGI [6]: 15.3 µM
- GI50 [7]: 2.38 µM
- TGI [7]: 7.45 µM
- GI50 [8]: 2.88 µM
- TGI [8]: 10.8 µM
- GI50 [9]: 3.11 µM
- TGI [9]: 16.3 µM
- GI50 [10]: 2.1 µM
- TGI [10]: 5.61 µM

SMILES: Cc1ccc(NS(=O)(=O)c2ccc(-c3cnc(C4CC4)o3)cc2)cc1
- GI50 [1]: 2.05 µM
- TGI [1]: 6.83 µM
- GI50 [2]: 10.8 µM
- TGI [2]: 23.5 µM
- GI50 [3]: 4.88 µM
- TGI [3]: 18.2 µM
- GI50 [4]: 3.91 µM
- TGI [4]: 14.9 µM
- GI50 [5]: 2.36 µM
- TGI [5]: 10.7 µM
- GI50 [6]: 6.22 µM
- TGI [6]: 20.1 µM
- GI50 [7]: 2.43 µM
- TGI [7]: 8.29 µM
- GI50 [8]: 4.1 µM
- TGI [8]: 17.2 µM
- GI50 [9]: 10.8 µM
- TGI [9]: 27.8 µM
- GI50 [10]: 3.49 µM
- TGI [10]: 16.1 µM

SMILES: COc1cc(-c2c3c(cn2S(=O)(=O)c2ccccc2)-c2nc(N)sc2CC3)cc(OC)c1OC
- GI50 [1]: 0.56 µM
- TGI [1]: 22.3 µM
- GI50 [2]: 4.81 µM
- TGI [2]: > 100 µM
- GI50 [3]: 0.987 µM
- TGI [3]: > 100 µM
- GI50 [4]: 0.51 µM
- TGI [4]: 18.4 µM
- GI50 [5]: 1.04 µM
- TGI [5]: 14.5 µM
- GI50 [6]: 1.12 µM
- TGI [6]: 29.8 µM
- GI50 [7]: 0.579 µM
- TGI [7]: 18.8 µM
- GI50 [8]: 4.45 µM
- TGI [8]: > 100 µM
- GI50 [9]: 10.3 µM
- TGI [9]: 60.1 µM
- GI50 [10]: 2.98 µM
- TGI [10]: > 100 µM

SMILES: C=CC1CC12C(=O)C1OC2(C)C2C(=O)c3ccccc3C(=O)C12 (configuration not stated)
- GI50 [1]: > 100 µM
- TGI [1]: > 100 µM
- GI50 [2]: > 100 µM
- TGI [2]: > 100 µM
- GI50 [3]: 12.7 µM
- TGI [3]: 68.7 µM
- GI50 [4]: > 58.3 µM
- TGI [4]: > 100 µM
- GI50 [5]: 35.2 µM
- TGI [5]: > 100 µM
- GI50 [6]: > 71 µM
- TGI [6]: > 100 µM
- GI50 [7]: 18.7 µM
- TGI [7]: 54.7 µM
- GI50 [8]: > 56.3 µM
- TGI [8]: > 100 µM
- GI50 [9]: > 45.9 µM
- TGI [9]: > 81.7 µM
- GI50 [10]: > 87.3 µM
- TGI [10]: > 100 µM

SMILES: Cn1ncc2cc(-c3cnc(N)c(Cl)c3N3CCC4(CCNC4=O)CC3)ccc21
- GI50 [1]: 11.2 µM
- TGI [1]: 32.4 µM
- GI50 [2]: > 100 µM
- TGI [2]: > 100 µM
- GI50 [3]: 33.1 µM
- TGI [3]: > 100 µM
- GI50 [4]: 59 µM
- TGI [4]: > 100 µM
- GI50 [5]: 8.11 µM
- TGI [5]: 54.3 µM
- GI50 [6]: 33 µM
- TGI [6]: > 100 µM
- GI50 [7]: 11.3 µM
- TGI [7]: 23.8 µM
- GI50 [8]: 32.7 µM
- TGI [8]: > 100 µM
- GI50 [9]: 31.2 µM
- TGI [9]: 66.1 µM
- GI50 [10]: 17.7 µM
- TGI [10]: > 100 µM

Reference: PubChem BioAssay (NCI)
